In brackets after ≈: the same amount, converted by molar mass. Read-outs that look alike come from different tables or passages of the source. One block for each compound: values may come before it.
Experiments:
storage stability = format: physicochemical
Description: Those compounds in which Rx or Ry is a hydrogen atom should be stored generally at lower temperatures, e.g. in a refrigerator. The 1-isocyano-l-p-toluenesulphonylethene (Rx and Ry hydrogen atoms) appears to be very unstable. Notwithstanding this the compound, in the reaction medium in which it must be present, could be converted with a primary amine into the corresponding imidazole, which in turn, may be converted into its ^picrate. This proves that 1-isocyano-i-p-toluenesulphonylethene exists.

Aspergillus flavus = experiment: MIC (Minimum Inhibitory Concentration); format: cell-based; conditions: Aspergillus flavus A 2385
Aspergillus parasiticus = experiment: MIC (Minimum Inhibitory Concentration); format: cell-based; conditions: for MIC: Aspergillus parasiticus A 2396; for MIC values: Aspergillus parasiticus A 2397
Aspergillus versiodor = experiment: MIC (Minimum Inhibitory Concentration); format: cell-based; conditions: Aspergillus versiodor Nr. 7
Bacillus subtilis = experiment: MIC (Minimum Inhibitory Concentration); format: cell-based; conditions: ATCC6633; Bacillus subtilis ATCC 6633
Candida albicans = experiment: MIC (Minimum Inhibitory Concentration); format: cell-based
Diplococcus pneumoniae = experiment: MIC (Minimum Inhibitory Concentration); format: cell-based; conditions: Streptococcus pneumoniae; Diplococcus pneumoniae A 2783
Fusarium = experiment: MIC (Minimum Inhibitory Concentration); format: cell-based; conditions: Fusarium A 3241
Pasteurella multocida = experiment: MIC (Minimum Inhibitory Concentration); format: cell-based; conditions: Pasteurella multocida A 723; read-out: MIC values
Penicillium islandicum = experiment: MIC (Minimum Inhibitory Concentration); format: cell-based; conditions: Talaromyces islandicus; Penicillium islandicum D 189
Penicillium italicum = experiment: MIC (Minimum Inhibitory Concentration); format: cell-based; conditions: Penicillium italicum 278-65
Penicillium patalum = experiment: MIC (Minimum Inhibitory Concentration); format: cell-based; conditions: Penicillium patalum A 2389
Penicillium rubrum = experiment: MIC (Minimum Inhibitory Concentration); format: cell-based; conditions: Talaromyces ruber; Penicillium rubrum A 2395
Penicillium veridicatum = experiment: MIC (Minimum Inhibitory Concentration); format: cell-based; conditions: Penicillium veridicatum A 2370
Proteus morganii = experiment: MIC (Minimum Inhibitory Concentration); format: cell-based; conditions: Morganella morganii; Proteus morganii 2241
Rhizoctonia solani = experiment: MIC (Minimum Inhibitory Concentration); format: cell-based; conditions: Rhizoctonia solani 200-25; read-out: MIC values
Staphylococcus aureus = experiment: MIC (Minimum Inhibitory Concentration); format: cell-based
Trichophyton equinum = experiment: MIC (Minimum Inhibitory Concentration); format: cell-based
[1] = test system: Trichophyton mentagrophytus; experiment: MIC (Minimum Inhibitory Concentration); format: cell-based
Trichophyton quickeaneum = experiment: MIC (Minimum Inhibitory Concentration); format: cell-based; conditions: Trichophyton quickeaneum A 2040; read-out: MIC values
Trichophyton rubrum = experiment: MIC (Minimum Inhibitory Concentration); format: cell-based
[2] = test system: Trichophyton schoenleinii; experiment: MIC (Minimum Inhibitory Concentration); format: cell-based; conditions: Trichophyton schoenleinii 435-63; read-out: MIC values
[3] = test system: Trichophyton soudanese joyeux; experiment: MIC (Minimum Inhibitory Concentration); format: cell-based; conditions: Trichophyton soudanese joyeux 440-63; read-out: MIC values
Trichophyton tonsurans = experiment: MIC (Minimum Inhibitory Concentration); format: cell-based; conditions: Trichophyton tonsurans 561-50; read-out: MIC values
Trichophyton verrucosum = experiment: MIC (Minimum Inhibitory Concentration); format: cell-based
Trichophyton violoceum = experiment: MIC (Minimum Inhibitory Concentration); format: cell-based; conditions: Trichophyton violoceum 442-62; read-out: MIC values
Fusarium (bulb) = experiment: MIC (Minimum Inhibitory Concentration); format: cell-based; conditions: Fusarium (bulb) A 3252
Fusarium (tulip) = experiment: MIC (Minimum Inhibitory Concentration); format: cell-based; conditions: Fusarium (tulip) A 3253
Fusarium solani = experiment: MIC (Minimum Inhibitory Concentration); format: cell-based; conditions: Fusarium solani A 3245; read-out: MIC values
[4] = Candida albicans A 7, read-out: MIC values
[5] = Candida albicans A 3140, read-out: MIC values
[6] = Candida albicans A 3141, read-out: MIC values
[7] = Candida albicans A 3144, read-out: MIC values
[8] = Candida albicans A 3145, read-out: MIC values
[9] = Candida albicans A 3165, read-out: MIC values
[10] = Candida albicans A 3167, read-out: MIC values
[11] = Candida albicans A 3168, read-out: MIC values
[12] = Candida albicans A 3169, read-out: MIC values
[13] = Candida albicans A 3171, read-out: MIC values
[14] = Candida albicans A 3191, read-out: MIC values
[15] = Candida albicans A 3194, read-out: MIC values
[16] = Candida albicans A 3196, read-out: MIC values
[17] = Trichophyton equinum 182-76, read-out: MIC values
[18] = Trichophyton equinum 856-71, read-out: MIC values
[19] = Trichophyton mentagrophytus 367-68, read-out: MIC values
[20] = Trichophyton mentagrophytus 421-67, read-out: MIC values
[21] = Trichophyton mentagrophytus A 3252, read-out: MIC values
[22] = Trichophyton mentagrophytus R 177, read-out: MIC values
[23] = Trichophyton mentagrophytus R 178, read-out: MIC values
[24] = Trichophyton mentagrophytus RRL 305, read-out: MIC values
[25] = Trichophyton rubrum 218-65, read-out: MIC values
[26] = Trichophyton rubrum 494-62, read-out: MIC values
[27] = Trichophyton rubrum A 810, read-out: MIC values
[28] = Trichophyton verrucosum 134-66, read-out: MIC values
[29] = Trichophyton verrucosum A 2922, read-out: MIC values

- stability (storage stability): very unstable
SMILES: [C-]#[N+]C(=C)S(=O)(=O)c1ccc(C)cc1 [Example 8, 1-isocyano-1-(4-toluenesulphonyl)-ethene]

SMILES: [C-]#[N+]C(=C(C)c1ccco1)S(=O)(=O)c1ccc(C)cc1 [Example 13, 1-isocyano-2-(2-furanyl)-1-(4-toluenesulphonyl)-1-propene]
- MIC (Aspergillus flavus): 12.5 µg/mL (≈ 43.5 µM)
- MIC (Aspergillus parasiticus): 6 µg/mL (≈ 20.9 µM)
- MIC values (Aspergillus parasiticus): 6 µg/mL (≈ 20.9 µM)
- MIC (Aspergillus versiodor): > 100 µg/mL
- MIC (Bacillus subtilis): 1.5 µg/mL (≈ 5.22 µM)
- MIC (Candida albicans; [4]): 0.1 µg/mL (≈ 0.348 µM)
- MIC (Candida albicans; [5]): 0.2 µg/mL (≈ 0.696 µM)
- MIC (Candida albicans; [6]): < 0.05 µg/mL
- MIC (Candida albicans; [7]): 0.2 µg/mL (≈ 0.696 µM)
- MIC (Candida albicans; [8]): < 0.05 µg/mL
- MIC (Candida albicans; [9]): 1.5 µg/mL (≈ 5.22 µM)
- MIC (Candida albicans; [10]): 0.4 µg/mL (≈ 1.39 µM)
- MIC (Candida albicans; [11]): 0.2 µg/mL (≈ 0.696 µM)
- MIC (Candida albicans; [12]): 0.2 µg/mL (≈ 0.696 µM)
- MIC (Candida albicans; [13]): < 0.05 µg/mL
- MIC (Candida albicans; Candida albicans A 3190, read-out: MIC values): < 0.05 µg/mL
- MIC (Candida albicans; [14]): < 0.05 µg/mL
- MIC (Candida albicans; [15]): < 0.05 µg/mL
- MIC (Candida albicans; [16]): < 0.05 µg/mL
- MIC (Diplococcus pneumoniae): 12.5 µg/mL (≈ 43.5 µM)
- MIC (Fusarium): 50 µg/mL (≈ 174 µM)
- MIC (Pasteurella multocida): 0.75 µg/mL (≈ 2.61 µM)
- MIC (Penicillium islandicum): 12.5 µg/mL (≈ 43.5 µM)
- MIC (Penicillium italicum): 3 µg/mL (≈ 10.4 µM)
- MIC (Penicillium patalum): 25 µg/mL (≈ 87 µM)
- MIC (Penicillium rubrum): 25 µg/mL (≈ 87 µM)
- MIC (Penicillium veridicatum): 3 µg/mL (≈ 10.4 µM)
- MIC (Proteus morganii): 12.5 µg/mL (≈ 43.5 µM)
- MIC (Rhizoctonia solani): 6 µg/mL (≈ 20.9 µM)
- MIC (Staphylococcus aureus; Staphylococcus aureus A 321): 12.5 µg/mL (≈ 43.5 µM)
- MIC (Staphylococcus aureus; Staphylococcus aureus A 355): 6 µg/mL (≈ 20.9 µM)
- MIC (Staphylococcus aureus; Staphylococcus aureus A 2000): 6 µg/mL (≈ 20.9 µM)
- MIC (Trichophyton equinum; [17]): 1.5 µg/mL (≈ 5.22 µM)
- MIC (Trichophyton equinum; [18]): 0.1 µg/mL (≈ 0.348 µM)
- MIC [1, 19]: 3 µg/mL (≈ 10.4 µM)
- MIC [1, 20]: 3 µg/mL (≈ 10.4 µM)
- MIC [1, 21]: 3 µg/mL (≈ 10.4 µM)
- MIC [1, 22]: 3 µg/mL (≈ 10.4 µM)
- MIC [1, 23]: 12.5 µg/mL (≈ 43.5 µM)
- MIC [1, 24]: 3 µg/mL (≈ 10.4 µM)
- MIC (Trichophyton quickeaneum): 0.4 µg/mL (≈ 1.39 µM)
- MIC (Trichophyton rubrum; [25]): 0.8 µg/mL (≈ 2.78 µM)
- MIC (Trichophyton rubrum; [26]): 0.8 µg/mL (≈ 2.78 µM)
- MIC (Trichophyton rubrum; [27]): 0.8 µg/mL (≈ 2.78 µM)
- MIC [2]: 3 µg/mL (≈ 10.4 µM)
- MIC [3]: 6 µg/mL (≈ 20.9 µM)
- MIC (Trichophyton tonsurans): 3 µg/mL (≈ 10.4 µM)
- MIC (Trichophyton verrucosum; [28]): 0.8 µg/mL (≈ 2.78 µM)
- MIC (Trichophyton verrucosum; [29]): 3 µg/mL (≈ 10.4 µM)
- MIC (Trichophyton violoceum): 3 µg/mL (≈ 10.4 µM)

SMILES: C[C@@H]1C/C=C/C=C/C=C/C=C/[C@H](O[C@@H]2O[C@H](C)[C@@H](O)[C@H](N)[C@@H]2O)C[C@@H]2O[C@](O)(C[C@@H](O)C[C@H]3O[C@@H]3/C=C/C(=O)O1)C[C@H](O)[C@H]2C(=O)O [natamycin, reference compound]
- MIC (Aspergillus flavus): 50 µg/mL (≈ 75.1 µM)
- MIC (Aspergillus parasiticus): 2.5 µg/mL (≈ 3.76 µM)
- MIC values (Aspergillus parasiticus): 2.5 µg/mL (≈ 3.76 µM)
- MIC (Aspergillus versiodor): 6 µg/mL (≈ 9.01 µM)
- MIC (Candida albicans; [4]): 12.5 µg/mL (≈ 18.8 µM)
- MIC (Candida albicans; [5]): 25 µg/mL (≈ 37.6 µM)
- MIC (Candida albicans; [6]): 3 µg/mL (≈ 4.51 µM)
- MIC (Candida albicans; [7]): 3 µg/mL (≈ 4.51 µM)
- MIC (Candida albicans; [8]): 3 µg/mL (≈ 4.51 µM)
- MIC (Candida albicans; [9]): 25 µg/mL (≈ 37.6 µM)
- MIC (Candida albicans; Candida albicans A 3166, read-out: MIC values): 6 µg/mL (≈ 9.01 µM)
- MIC (Candida albicans; [10]): 1.5 µg/mL (≈ 2.25 µM)
- MIC (Candida albicans; [11]): 12.5 µg/mL (≈ 18.8 µM)
- MIC (Candida albicans; [12]): 1.5 µg/mL (≈ 2.25 µM)
- MIC (Candida albicans; [13]): 6 µg/mL (≈ 9.01 µM)
- MIC (Candida albicans; [14]): 6 µg/mL (≈ 9.01 µM)
- MIC (Candida albicans; [15]): 3 µg/mL (≈ 4.51 µM)
- MIC (Candida albicans; [16]): 6 µg/mL (≈ 9.01 µM)
- MIC (Fusarium (bulb)): 6 µg/mL (≈ 9.01 µM)
- MIC (Fusarium (tulip)): 6 µg/mL (≈ 9.01 µM)
- MIC (Fusarium solani): 9.3 µg/mL (≈ 14 µM)
- MIC (Fusarium): 3 µg/mL (≈ 4.51 µM)
- MIC (Penicillium islandicum): 3 µg/mL (≈ 4.51 µM)
- MIC (Penicillium italicum): 3 µg/mL (≈ 4.51 µM)
- MIC (Penicillium patalum): 3 µg/mL (≈ 4.51 µM)
- MIC (Penicillium rubrum): 3 µg/mL (≈ 4.51 µM)
- MIC (Penicillium veridicatum): 1.5 µg/mL (≈ 2.25 µM)
- MIC (Rhizoctonia solani): 2.3 µg/mL (≈ 3.45 µM)
- MIC (Trichophyton equinum; [17]): 25 µg/mL (≈ 37.6 µM)
- MIC (Trichophyton equinum; [18]): 6 µg/mL (≈ 9.01 µM)
- MIC [1, 19]: 12.5 µg/mL (≈ 18.8 µM)
- MIC [1, 20]: 12.5 µg/mL (≈ 18.8 µM)
- MIC [1, 21]: 100 µg/mL (≈ 150 µM)
- MIC [1, 22]: 50 µg/mL (≈ 75.1 µM)
- MIC [1, 23]: 50 µg/mL (≈ 75.1 µM)
- MIC [1, 24]: 12.5 µg/mL (≈ 18.8 µM)
- MIC (Trichophyton quickeaneum): 12.5 µg/mL (≈ 18.8 µM)
- MIC (Trichophyton rubrum; [25]): 12.5 µg/mL (≈ 18.8 µM)
- MIC (Trichophyton rubrum; [26]): 25 µg/mL (≈ 37.6 µM)
- MIC (Trichophyton rubrum; [27]): 12.5 µg/mL (≈ 18.8 µM)
- MIC [2]: 25 µg/mL (≈ 37.6 µM)
- MIC [3]: 25 µg/mL (≈ 37.6 µM)
- MIC (Trichophyton tonsurans): 12.5 µg/mL (≈ 18.8 µM)
- MIC (Trichophyton verrucosum; [28]): 25 µg/mL (≈ 37.6 µM)
- MIC (Trichophyton verrucosum; [29]): 25 µg/mL (≈ 37.6 µM)
- MIC (Trichophyton violoceum): 50 µg/mL (≈ 75.1 µM)
